Experimental data taken from BigSolDB 2.1.

O=C1Nc2ccccc2C1=O
Details | solubility (mole fraction)
in PEG-400, 298.15 K | 0.0985
in PEG-400, 308.15 K | 0.109
in PEG-400, 318.15 K | 0.121
in PEG-400, 328.15 K | 0.132
in PEG-400, 338.15 K | 0.144

solubility (mole fraction)
Details | in ethanol | in ethyl acetate | in ethylene glycol | in isopropanol | in propylene glycol | in sec-butanol | in transcutol | in water
298.15 K | 0.00409 | 0.00568 | 0.00754 | 0.00419 | 0.00673 | 0.00516 | 0.523 | 5.14e-05
308.15 K | 0.00506 | 0.00738 | 0.0092 | 0.00545 | 0.00827 | 0.00596 | 0.539 | 8.08e-05
318.15 K | 0.0065 | 0.00926 | 0.011 | 0.00694 | 0.01 | 0.0071 | 0.561 | 0.000113
328.15 K | 0.00755 | 0.0111 | 0.0127 | 0.00867 | 0.0112 | 0.00814 | 0.581 | 0.000152
338.15 K | 0.00897 | 0.013 | 0.0146 | 0.0105 | 0.0133 | 0.00899 | 0.598 | 0.000202
